Measurements taken from patent US11432573B2, “Food and beverage sweeteners” (priority 2017, dated 2022).

Experiment: Serum glucose levels in subjects after consuming coffee with sweetener blend or sucrose (Example 1)
Type: in vivo, human
Settings: for serum glucose (Average): average across three subjects
Procedure: The following Example summarizes the impact of the above-listed formulas on serum glucose levels within three different subjects. Specifically, 6.0 grams of a blend of Formula-1 through Formula-5 (above) were stirred vigorously into one shot of regular caffeinated expresso coffee that was topped to 350 milliliters of warm water. The coffee was then completely consumed by each subject within 5 minutes, following a time=0 measurement of each subject's serum glucose levels. Each subject's serum glucose levels were subsequently measured at 15 minute intervals, up to 100 minutes following the time=0 measurement. The impact of traditional sucrose on each of the subject's serum glucose levels was also measured, so that the impact of the test sweetener composition on serum glucose levels could be measured relative to such impact by traditional sucrose. The following Tables summarize the serum glucose level measurements observed with each subject (Table-1, Table-2, and Table-3), along with the average across each of the three subjects (Table-4)(the data represent mmol/L serum glucose).

## OC[C@H]1O[C@@](CO)(O[C@H]2O[C@H](CO)[C@@H](O)[C@H](O)[C@H]2O)[C@@H](O)[C@@H]1O [Sucrose, sucrose]
Subject 1, T = 0 (before consumption)
  serum glucose: 5.20 mmol/L
Subject 1, T = 15 minutes
  serum glucose: 6.20 mmol/L
Subject 1, T = 30 minutes
  serum glucose: 7.60 mmol/L
Subject 1, T = 45 minutes
  serum glucose: 7.60 mmol/L
Subject 1, T = 60 minutes
  serum glucose: 7.00 mmol/L
Subject 1, T = 75 minutes
  serum glucose: 6.20 mmol/L
Subject 1, T = 100 minutes
  serum glucose: 6.00 mmol/L
Subject 2, T = 0 (before consumption)
  serum glucose: 5.10 mmol/L
Subject 2, T = 15 minutes
  serum glucose: 6.00 mmol/L
Subject 2, T = 30 minutes
  serum glucose: 7.50 mmol/L
Subject 2, T = 45 minutes
  serum glucose: 7.40 mmol/L
Subject 2, T = 60 minutes
  serum glucose: 7.00 mmol/L
Subject 2, T = 75 minutes
  serum glucose: 6.00 mmol/L
Subject 2, T = 100 minutes
  serum glucose: 5.60 mmol/L
Subject 3, T = 0 (before consumption)
  serum glucose: 5.20 mmol/L
Subject 3, T = 15 minutes
  serum glucose: 5.60 mmol/L
Subject 3, T = 30 minutes
  serum glucose: 7.70 mmol/L
Subject 3, T = 45 minutes
  serum glucose: 7.80 mmol/L
Subject 3, T = 60 minutes
  serum glucose: 7.40 mmol/L
Subject 3, T = 75 minutes
  serum glucose: 6.40 mmol/L
Subject 3, T = 100 minutes
  serum glucose: 6.20 mmol/L
T = 0 (before consumption)
  serum glucose (Average): 5.17 mmol/L
T = 15 minutes
  serum glucose (Average): 5.93 mmol/L
T = 30 minutes
  serum glucose (Average): 7.60 mmol/L
T = 45 minutes
  serum glucose (Average): 7.60 mmol/L
T = 60 minutes
  serum glucose (Average): 7.13 mmol/L
T = 75 minutes
  serum glucose (Average): 6.20 mmol/L
T = 100 minutes
  serum glucose (Average): 5.93 mmol/L
